Experimental findings from BindingDB's records for doi:10.1021/jm990266k (Warner-Lambert, 1999) are described below.

The nature of the assay: Compound was tested for the inhibition of [3H]-thymidine uptake in CHO p-5 cells transfected with human Dopamine receptor D4.2.

`Cc1ccc(N2CCN(Cc3ccc4oc(=O)ccc4c3)CC2)cc1` [6-(4-p-Tolyl-piperazin-1-ylmethyl)-chromen-2-one] yielded an IC50 of over 1000 nM.
For `Cc1ccc(N2CCN(Cc3ccc4ccc(=O)oc4c3)CC2)cc1Cl` [7-[4-(3-Chloro-4-methyl-phenyl)-piperazin-1-ylmethyl]-chromen-2-one] the value was 5.4 nM.

By IC50 is commonly meant the midpoint of a concentration-inhibition curve. Lower therefore signals greater potency.
